# Results from patent US9408852B2, “Method of lowering serum uric acid levels with (S)-tofisopam” (PHARMOS CORPORATION, priority 2011, dated 2016).
# Where “and” joins values, the source holds several entries; their conditions need not be identical. Identical values can stand only once.
# Tests used:
# Assay type in all cases: in vivo, human
# [1] = test system: serum uric acid; assay: Serum uric acid in male and female patients with hyperuricemia and gout, 7 days (Example 7)
# Procedure: (§1) The study lasted 7 days, and patients were treated with placebo or 50 mg of enantiomerically-pure (S)-tofisopam once a day (qd) on Day 1 and Day 7 of the study, and with placebo or 50 mg of enantiomerically-pure (S)-tofisopam three times a day (tid) for Days 2 to 6 of the study. […] In Table 6, days indicated with a minus sign (e.g. D-1) indicate the time point corresponding to that number of days before treatment was initiated. For example, D-14 is the time point fourteen days before treatment was initiated.
# [2] = test system: serum creatinine; assay: Serum creatinine in male and female patients with hyperuricemia and gout, 7 days (Example 8)
# Procedure: as §1, with “7,” for “6,”
# [3] = test system: urinary uric acid excretion; assay: 24 h urinary uric acid excretion in patients with hyperuricemia and gout (Example 9); settings: for Percent change in Uu (mg/24 h), amount of uric acid excreted into the urine over 24 hours / Percent change in Uu (mg/dL), concentration of uric acid in 24 hour urine: 50 mg qd Day 1 and 7, tid Days 2 to 6
# Procedure: as §1, with “8,” for “6,”
# [4] = test system: fractional excretion of urate; assay: Fractional excretion of urate in patients with hyperuricemia and gout (Example 9); settings: 50 mg qd Day 1 and 7, tid Days 2 to 6
# Procedure: as §1, with “8,” for “6,”
# [5] = test system: clearance creatinine; assay: Creatinine clearance in patients with hyperuricemia and gout (Example 9); settings: 50 mg qd Day 1 and 7, tid Days 2 to 6
# Procedure: as §1, with “8,” for “6,”
# [6] = 50 mg qd Day 1 and Day 7, tid Days 2 to 6, Day 6 to Day 7: Day 6 + Day 7, hyperuricemia and gout
# [7] = 50 mg qd Day 1 and Day 7, tid Days 2 to 6, Day 7 (Day 1 0 h = 0.0), hyperuricemia and gout
# [8] = 50 mg qd Day 1 and Day 7, tid Days 2 to 6, Day 8 (after treatment stopped), hyperuricemia and gout
# [9] = 50 mg qd Day 1 and Day 7, tid Days 2 to 6, Day 15 (after treatment stopped), hyperuricemia and gout
# [10] = 50 mg qd Day 1 and Day 7, tid Days 2 to 6, male and female patients with hyperuricemia and gout
# [11] = after 7 days of 50 mg treatment, hyperuricemia and gout
# [12] = 50 mg qd Day 1 and Day 7, tid Days 2 to 6, Day 1 6 h (Day 1 0 h = 0.0), hyperuricemia and gout
# [13] = 50 mg qd Day 1 and Day 7, tid Days 2 to 6, Day 1 to Day 2: Day 1 0 h + Day 2, hyperuricemia and gout
# [14] = 50 mg qd Day 1 and Day 7, tid Days 2 to 6, Day 2 (Day 1 0 h = 0.0), hyperuricemia and gout
# [15] = 50 mg qd Day 1 and Day 7, tid Days 2 to 6, Day 3 (Day 1 0 h = 0.0), hyperuricemia and gout
# [16] = 50 mg qd Day 1 and Day 7, tid Days 2 to 6, Day 4 (Day 1 0 h = 0.0), hyperuricemia and gout
# [17] = 50 mg qd Day 1 and Day 7, tid Days 2 to 6, Day 5 (Day 1 0 h = 0.0), hyperuricemia and gout
# [18] = 50 mg qd Day 1 and Day 7, tid Days 2 to 6, Day 6 (Day 1 0 h = 0.0), hyperuricemia and gout
# [19] = individual patient (P#), [D 1 to D 2] from [D −2 to D −1]
# [20] = individual patient (P#), [D 6 to D 7] from [D 1 to D 2]
# [21] = mean (M) of patients, [D 1 to D 2] from [D −2 to D −1]
# [22] = mean (M) of patients, [D 6 to D 7] from [D 1 to D 2]
structure (smiles),measurement,setting,value
CC[C@@H]1C(C)=NN=C(c2ccc(OC)c(OC)c2)c2cc(OC)c(OC)cc21 [(S)-tofisopam],"Percent change in serum uric acid, mean (M) of 13 patients",[1]; [6],−45.1%
same,"Percent change in serum uric acid, individual patients (P# 1-13)",[1]; [7],−48.0% (2×) and −58.9% and −41.4% and −47.9% and −31.1% and −55.7% and −40.2% and −42.3%
same,"Percent change in serum uric acid, mean (M) of 13 patients",[1]; [7],−47.1%
same,"Percent change in serum uric acid, individual patients (P# 1-13)",[1]; [8],−36.0% (2×) and −46.6% and −32.9% and −41.7% and −24.3% and −45.6% and −30.9% and −26.8%
same,"Percent change in serum uric acid, mean (M) of 13 patients",[1]; [8],−35.5%
same,"Percent change in serum uric acid, individual patients (P# 1-13)",[1]; [9],36.0% and 17.8% and 25.7% and −13.3% and 1.0% and 39.2% and 30.4% and 10.3% and 26.8%
same,"Percent change in serum uric acid, mean (M) of 13 patients",[1]; [9],18.9%
same,Effect on serum uric acid levels,[1]; [10],decreases
same,Serum uric acid levels once treatment was stopped after 7 days,[1]; [11],began to increase again
same,"Percent change in serum creatinine, individual patients (P# 1-13)",[2]; [12],10.1% and 0.9% and 2.9% and 0.0% (2×) and 1.8% and 5.7% and 4.8% and 10.3%
same,"Percent change in serum creatinine, mean (M) of 13 patients",[2]; [12],2.5%
same,"Percent change in serum creatinine, individual patients (P# 1-13)",[2]; [13],4.4% and 0.9% and 0.5% (2×) and −1.0% and 2.3% and 0.8% and −1.3% and 6.7%
same,"Percent change in serum creatinine, mean (M) of 13 patients",[2]; [13],1.1%
same,"Percent change in serum creatinine, individual patients (P# 1-13)",[2]; [14],8.9% and 1.9% and 1.0% and −2.0% and 4.5% and 0.9% and 1.6% and −2.6% and 13.3%
same,"Percent change in serum creatinine, mean (M) of 13 patients",[2]; [14],2.1%
same,"Percent change in serum creatinine, individual patients (P# 1-13)",[2]; [15],7.6% and 3.7% and 13.6% and 2.0% and 16.2% and 10.4% and 4.8% and 17.9% and 24.0% and 14.9%
same,"Percent change in serum creatinine, mean (M) of 13 patients",[2]; [15],10.1%
same,"Percent change in serum creatinine, individual patients (P# 1-13)",[2]; [16],3.8% and −5.6% and 4.9% and −2.0% and 21.6% and −2.8% and 3.2% and 14.1% and 18.7%
same,"Percent change in serum creatinine, mean (M) of 13 patients",[2]; [16],6.1%
same,"Percent change in serum creatinine, individual patients (P# 1-13)",[2]; [17],−5.1% and −3.7% and 8.7% and 9.8% and 23.4% and 0.9% and 14.3% and 7.7% and 24.0%
same,"Percent change in serum creatinine, mean (M) of 13 patients",[2]; [17],7.2%
same,"Percent change in serum creatinine, individual patients (P# 1-13)",[2]; [18],17.7% and 7.4% and 2.9% and 4.9% and 9.9% and 0.0% and 6.3% and 7.7% and 18.7%
same,"Percent change in serum creatinine, mean (M) of 13 patients",[2]; [18],8.0%
same,"Percent change in serum creatinine, individual patients (P# 1-13)",[2]; [6],15.2% and 2.3% and 0.5% and 1.0% and 10.4% and 5.7% and 7.1% and 5.1% and 12.0%
same,"Percent change in serum creatinine, mean (M) of 13 patients",[2]; [6],5.8%
same,"Percent change in serum creatinine, individual patients (P# 1-13)",[2]; [7],12.7% and −2.8% and −1.9% and −2.9% and 10.8% and 11.3% and 7.9% and 2.6% and 5.3%
same,"Percent change in serum creatinine, mean (M) of 13 patients",[2]; [7],3.7%
same,"Percent change in serum creatinine, individual patients (P# 1-13)",[2]; [8],10.1% and −7.4% and −8.7% and −6.9% and 0.9% and −2.8% and 12.7% and 12.8% and 24.0%
same,"Percent change in serum creatinine, mean (M) of 13 patients",[2]; [8],3.8%
same,"Percent change in serum creatinine, individual patients (P# 1-13)",[2]; [9],27.8% and 9.3% and 19.4% and 4.9% and 17.1% and 23.6% and 25.4% and −2.6% and 46.7%
same,"Percent change in serum creatinine, mean (M) of 13 patients",[2]; [9],13.6%
same,Effect on serum creatinine levels,[2]; [10],does not modify
same,Serum creatinine levels once treatment was stopped after 7 days,[2]; [11],did not substantially change
same,Uric acid excretion levels in the urine,"[3]; after initiation of treatment, 50 mg qd Day 1 and Day 7, tid Days 2 to 6, hyperuricemia and gout",increased
same,"Percent change in Uu (mg/24 h), amount of uric acid excreted into the urine over 24 hours",[3]; [19],14.4% and 6.5% and −29.9% and 12.0% and −55.4% and 85.4% and 25.1% and 99.2% and 43.4% and −30.9% and −7.1% and 27.8%
same,"Percent change in Uu (mg/dL), concentration of uric acid in 24 hour urine",[3]; [19],32.7% and −13.4% and 4.0% and 15.5% and −77.6% and 91.7% and 106.9% and 71.3% and 13.1% and −24.6% and −32.7% and 54.8%
same,"Percent change in Uu (mg/24 h), amount of uric acid excreted into the urine over 24 hours",[3]; [20],4.6% and 21.3% and 43.8% and 18.3% and 1.0% and −7.0% and −11.6% and −18.9% and 7.9% and −13.3% and −22.8%
same,"Percent change in Uu (mg/dL), concentration of uric acid in 24 hour urine",[3]; [20],−15.6% and 1.7% and −17.5% and −15.9% and −20.8% and −40.4% and −48.3% and −49.3% and −9.5% and −14.3% and −39.5%
same,"Percent change in Uu (mg/24 h), amount of uric acid excreted into the urine over 24 hours",[3]; [21],15.9%
same,"Percent change in Uu (mg/dL), concentration of uric acid in 24 hour urine",[3]; [21],20.1%
same,"Percent change in Uu (mg/24 h), amount of uric acid excreted into the urine over 24 hours",[3]; [22],2.1%
same,"Percent change in Uu (mg/dL), concentration of uric acid in 24 hour urine",[3]; [22],−24.5%
same,Percent change in FEu (fractional excretion uric acid),[4]; [19],−14.9% and 11.7% and −0.2% and 41.9% and −54.2% and 137.8% and 62.9% and 162.7% and 51.0% and −29.6% and 19.5% and 40.4%
same,Percent change in FEu (fractional excretion uric acid),[4]; [20],139.3% and 78.5% and 160.4% and 60.9% and 100.7% and 62.6% and 17.3% and 33.2% and 61.6% and 57.5% and 125.9%
same,Percent change in FEu (fractional excretion uric acid),[4]; [21],35.8%
same,Percent change in FEu (fractional excretion uric acid),[4]; [22],81.6%
same,Percent change in CLc (clearance creatinine),[5]; [19],35.1% and 2.5% and −24.4% and −14.2% and 16.2% and −22.4% and 0.7% and −4.1% and −2.7% and −1.3% and −11.8% and 11.2%
same,Percent change in CLc (clearance creatinine),[5]; [20],−12.7% and 15.2% and 21.1% and 14.0% and 8.9% and 0.0% (2×) and −3.9% and 14.3% and 0.7% and −23.7%
same,Percent change in CLc (clearance creatinine),[5]; [21],−1.3%
same,Percent change in CLc (clearance creatinine),[5]; [22],3.1%
